Literature values in paper PMC10649714, “Development and Identification of Novel α-Glucosidase Inhibitory Peptides from Mulberry Leaves” (Foods, 2023).

Biological target: α-glucosidase (Saccharomyces cerevisiae, UniProt P53341)
Details: Binglangjiang buffalo casein peptides
Source text: Bioactive peptides are composed of 2–20 amino acids. These peptides have no obvious activity in the macromolecular state but show anti-diabetes, anti-hypertension, anti-inflammation, anti-cancer, and other biological activities after degradation. Enzymatic hydrolysis is commonly employed in both research and industrial settings for the preparation of bioactive peptides due to its favorable attributes, including gentle reaction conditions and the ability to effectively regulate the reaction process. […] Although the precise chemical responsible for this benefit is unknown, the ancient Chinese medicinal book Qi Min Yao Shu referenced the effect of mulberry leaf as tr ... || To further verify the synthesis of peptides, in vitro activity tests were carried out. […] […].

Chain of α-glucosidase (P53341 whole entry): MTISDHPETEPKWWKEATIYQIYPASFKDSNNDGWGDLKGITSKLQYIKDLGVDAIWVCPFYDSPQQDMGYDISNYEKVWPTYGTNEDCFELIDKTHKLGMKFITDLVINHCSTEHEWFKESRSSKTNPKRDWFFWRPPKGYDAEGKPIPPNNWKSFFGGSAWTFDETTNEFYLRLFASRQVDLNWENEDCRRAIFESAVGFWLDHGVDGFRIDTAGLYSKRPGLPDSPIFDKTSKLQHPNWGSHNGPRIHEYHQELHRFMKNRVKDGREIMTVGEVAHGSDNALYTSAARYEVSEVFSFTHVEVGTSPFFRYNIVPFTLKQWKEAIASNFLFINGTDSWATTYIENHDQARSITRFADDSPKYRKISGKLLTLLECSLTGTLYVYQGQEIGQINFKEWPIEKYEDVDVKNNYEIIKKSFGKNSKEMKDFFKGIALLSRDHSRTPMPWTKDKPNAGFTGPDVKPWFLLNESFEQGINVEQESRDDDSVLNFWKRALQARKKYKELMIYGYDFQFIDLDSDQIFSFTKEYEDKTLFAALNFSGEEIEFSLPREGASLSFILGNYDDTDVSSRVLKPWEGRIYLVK

| IC50 ratio of peptide to acarbose | Compound |
| --- | --- |
| approximately 2.5 | RNAVPITPTLNR [Binglangjiang buffalo casein peptide] |
| approximately 2.5 | YLGYLEQLLR [Binglangjiang buffalo casein peptide] |
| approximately 2.5 | TKVIPYVRYL [Binglangjiang buffalo casein peptide] |
| approximately 2.5 | FALPQYLK [Binglangjiang buffalo casein peptide] |

Same assay, conditions: Ginkgo biloba seed protein peptides

| IC50 ratio of peptide to acarbose | Compound |
| --- | --- |
| 1.22 | LSMSFPPF [peptide from Ginkgo biloba seed protein] |
| 2.54 | MPGPPSD [peptide from Ginkgo biloba seed protein] |
| 3.89 | VPKIPPP [peptide from Ginkgo biloba seed protein] |

Same assay, conditions: in words; ref 9 (LDLQR, AGGFR, LDNFR), 11 (RVPSLM, KLPGF), ref 12 (SEDSSEVDIDLGNLG), ref 13 (TTGGKGGK), ref 14 (KETTTIVR)

| Compound | α-glucosidase inhibition in vitro |
| --- | --- |
| KETTTIVR [spicy wood seed protein-derived peptide] | excellent |
| SEDSSEVDIDLGNLG [sericin-derived peptide] | excellent |
| TTGGKGGK [black bean protein-derived peptide] | excellent |
| LDNFR [wheat germ peptide] | excellent |
| LDLQR [wheat germ peptide] | excellent |

Results, then the compound that gave them:

| α-glucosidase inhibition in vitro | Compound |
| --- | --- |
| excellent | KLPGF [egg white protein-derived peptide] |
| excellent | AGGFR [wheat germ peptide] |
| excellent | RVPSLM [egg white protein-derived peptide] |

Same assay, conditions: wheat germ peptides

| IC50 ratio of peptide to acarbose | Compound |
| --- | --- |
| 2.54 | AGGFR [wheat germ peptide] |
| 2.70 | LDNFR [wheat germ peptide] |
| 2.52 | LDLQR [wheat germ peptide] |

Test system: α-glucosidase (PDB ID: 5ZCE)
Details: not given
Source text: All hydrogen bonds in this complex with a length less than 3.5 Å were considered to make a close contact, and the binding energy obtained was −8.78 kcal/mol. […] Along with other interaction forces, the binding energy was −8.75 kcal/mol. In addition, […] formed seven hydrogen bonds a ...

| Compound | binding sites with α-glucosidase |
| --- | --- |
| O=C(CCc1ccc(O)cc1)c1c(O)cc(O[C@@H]2O[C@H](CO)[C@@H](O)[C@H](O)[C@H]2O)cc1O [trilobatin] | ASP-60, ASP-199, HIS-203, GLN-256, and GLN-328 |
| O=c1c(O)c(-c2ccc(O)cc2O)oc2cc(O)cc(O)c12 [morin] | ASP-60, ASP-199, HIS-203, GLN-256, and GLN-328 |
| C[C@@H]1O[C@@H](O[C@H]2C(=O)c3c(O)cc(O)cc3O[C@@H]2c2ccc(O)c(O)c2)[C@H](O)[C@H](O)[C@H]1O [astilbin] | ASP-60, ASP-199, HIS-203, GLN-256, and GLN-328 |
